Data taken from PubChem BioAssay (NCI).
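Following 48 hours of exposure in 96-well plates, responses at five concentrations were used to interpolate endpoints linearly. At the TGI there is no net growth.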

Tests used:
Assay in all cases: NCI anticancer screen, dose series, 48 h
[1] = test system: MALME-3M melanoma
[2] = test system: SF-539 CNS
[3] = test system: IGROV1 ovarian
[4] = test system: HOP-62 NSCLC
[5] = test system: CAKI-1 renal
[6] = test system: U251 CNS
[7] = test system: SNB-75 CNS
[8] = test system: HCT-15 colon
[9] = test system: UACC-62 melanoma
[10] = test system: NCI/ADR-RES ovarian
[11] = test system: SK-MEL-2 melanoma
[12] = test system: PC-3 prostate
[13] = test system: OVCAR-4 ovarian
[14] = test system: SN12C renal
[15] = test system: EKVX NSCLC
[16] = test system: CCRF-CEM leukemia
[17] = test system: MDA-N
[18] = test system: A498 renal
[19] = test system: DU-145 prostate
[20] = test system: SK-OV-3 ovarian

SMILES	TGI [1]	TGI [2]	TGI [3]	TGI [4]	TGI [5]	TGI [6]	TGI [7]	TGI [8]	TGI [9]	TGI [10]	TGI [11]	TGI [12]	TGI [13]	TGI [14]	TGI [15]	TGI [16]	TGI [17]	TGI [18]	TGI [19]	TGI [20]
CCCCC1Nc2ccccc2-c2ccnc(Cl)c21 (stereo not given)	51 µM	41.8 µM	47.9 µM	53.3 µM	20.2 µM	50.1 µM	52.3 µM	44.4 µM	32.2 µM	99.6 µM	35.8 µM	> 100 µM	91.5 µM	51 µM	60.5 µM	52.6 µM	54.9 µM	46.4 µM	50.3 µM	55.7 µM
CCOC(=O)C1=NN(c2ccc(C)cc2)C2(c3ccccc3)C=C(c3ccccc3)N(C)CCN12 (stereo not given)	> 100 µM	> 100 µM	> 100 µM	> 100 µM	> 100 µM	> 100 µM	> 100 µM	> 100 µM	> 100 µM	> 100 µM	> 100 µM	> 100 µM	> 100 µM	> 100 µM	> 100 µM	> 100 µM	> 100 µM	> 100 µM	> 100 µM	> 100 µM
C/C(CC(O)(C(F)(F)F)C(F)(F)F)=N\NC(N)=S	> 10 µM	> 10 µM	> 10 µM	> 10 µM	> 10 µM	> 10 µM	> 10 µM	> 10 µM	> 10 µM	> 10 µM	> 10 µM	> 10 µM	> 10 µM	> 10 µM	> 10 µM	> 10 µM	> 10 µM	> 10 µM	> 10 µM	> 10 µM
NC1=Nc2ccccc2Sc2nccn21	34.6 µM	56.1 µM	> 100 µM	57.4 µM	64.9 µM	96.2 µM	54.3 µM	59.7 µM	> 100 µM	72 µM	> 100 µM	65 µM	> 100 µM	> 100 µM	> 100 µM	75.3 µM	59.7 µM	75.8 µM	> 100 µM	> 100 µM
O=C1NCN(c2ccccc2)C12CCN(CCCN1CCN(CCOC(c3ccccc3)c3ccccc3)CC1)CC2	5.54 µM	2.48 µM	7.4 µM	6.6 µM	7.43 µM	7.45 µM	5.46 µM	5.19 µM	7.69 µM	8.91 µM	6.75 µM	7.69 µM	7.47 µM	7.14 µM	7.24 µM	3.59 µM	2.12 µM	6.55 µM	7 µM	7.12 µM
CCOC(=O)c1ccc(NCc2ccc3nc(OC)c(OC)nc3c2)cc1	> 100 µM	> 100 µM	> 100 µM	> 100 µM	> 100 µM	> 100 µM	> 100 µM	> 100 µM	> 100 µM	> 100 µM	> 100 µM	> 100 µM	> 100 µM	> 100 µM	> 100 µM	> 100 µM	> 100 µM	> 100 µM	> 100 µM	> 100 µM
Cc1cn(CC2(CO)CCC2)c(=O)[nH]c1=O	> 100 µM	> 100 µM	> 100 µM	> 100 µM	> 100 µM	> 100 µM	> 100 µM	> 100 µM	> 100 µM	> 100 µM	> 100 µM	> 100 µM	> 100 µM	> 100 µM	> 100 µM	> 100 µM	> 100 µM	> 100 µM	> 100 µM	> 100 µM
C/C(=N\N)C(CN1CCOCC1)C(c1ccccc1)c1c(O)c2ccccc2oc1=O (stereo not given)	> 100 µM	> 100 µM	> 100 µM	> 100 µM	> 100 µM	> 100 µM	> 100 µM	> 100 µM	> 100 µM	> 100 µM	> 100 µM	> 100 µM	> 100 µM	> 100 µM	> 100 µM	> 100 µM	> 100 µM	> 100 µM	> 100 µM	> 100 µM
